Consider three molecules from US20240050513A1, “COMPOSITION FOR PREVENTING, AMELIORATING, OR TREATING DISEASE CAUSED BY PROTEIN NITRATION […] WITH TERMINAL TYROSINE AS EFFECTIVE COMPONENT” (INDUSTRY-ACADEMIC COOPERATION FOUNDATION GYEONGSANG …, priority 2021, published 2024).

Test [1] relates to kainic acid-treated ICR mice. In words: Seizure level in kainic acid epileptic seizure model. In kind it is in vivo.
Experimental: Four-week-old male ICR mice were fed with normal diet, tyrosine (L-Tyr), or tyrosine-containing peptide (3xYQ, 1xYW, or 3xYW) for one week. […] Kainic acid (KA) was dissolved in saline by heating in a water bath, resulting in a 4.5 mg/ml KA solution. The resulting KA solution was then intraperitoneally injected at a dose of 36 mg/kg, and seizure level and symptoms were recorded for 2 hours.
Test [2] relates to chronic immobilization stress C57BL/6 mice. Kind of test: Cognitive function (ORT/OLT) in chronic immobilization stress model. In kind it is in vivo. The note with it: stress group, peptide-supplemented diet vs normal diet. The protocol: To analyze the long-term memory capacity of animals following the peptide diet of the present invention, both the object recognition test (ORT) and object location recognition test (OLT) were conducted (FIG. 1). The tests consisted of three phases: habituation, familiarization, and test. During the habituation phase, the animals were acclimated to the testing apparatus for 10 minutes per day over two days. On the third day at the familiarization phase, the animals were allowed to explore two identical objects for 10 minutes. Subsequently, on the fourth day at the test phase, one of the objects was replaced with a novel object, and the animals were allowed to explore for 10 minutes, with result recorded during the initial 5 minutes was used as test data. The object recognition test (ORT) index was calculated using the following formula.
Discrimination index=(N−F)/(N+F) • N: Time spent for exploring new object • F: Time spent for exploring familiar object
After 24 hours of performing the ORT, the location of the familiar object was changed, and the animals were allowed to explore for 5 minutes. During the total exploration time, the ratio of time spent exploring the object with a changed location was calculated to determine the object location recognition test (OLT) index.
A total of 28 seven-week-old male C57BL/6 mice were divided into two groups: a control group and a stress group. […]

The subject of test [3] is glutamine synthetase (GS). In words: Hippocampal glutamine synthetase activity in kainic acid epileptic seizure model. The settings on record: survived mice after kainic acid.
Experimental: Kainic acid (KA) was dissolved in saline by heating in a water bath, resulting in a 4.5 mg/ml KA solution. The resulting KA solution was then intraperitoneally injected at a dose of 36 mg/kg, and seizure level and symptoms were recorded for 2 hours. The brain tissues (prefrontal cortex and hippocampus) of the mice that survived 16 hours or 5 days after the KA injection were collected.
To a 96-well plate, 2 μl of hippocampal homogenate was added, and 50 μl of 50 mM imidazole-HCl buffer (pH 6.8) were added to adjust the volume to 50 μl. Then, 50 μl of GS assay buffer (50 mM imidazole-HCl, pH 6.8, 25 mM L-glutamine, 12.5 mM hydroxylamine, 12.5 mM sodium arsenate, 1 mM MnCl2, and 0.08 mM ADP) were added and the reaction was allowed to occur at 37° C. for approximately 40 minutes. […] To terminate the reaction, 100 μl of stop solution (90 mM FeCl3, 1.8 N HCl, and 1.45% w/v trichloroacetic acid) were added to both the samples and the standard substance, and the absorbance was measured at 560 nm. The GS activity in each sample was determined by comparing it with the standard curve. GS activity was expressed as the generation amount of γ-glutamylhydroxamate, which is produced as a final product, and described in unit of μM/min/μg protein.
Test [4] deals with glutamine synthetase (GS). Kind of test: GS activity and GS tyrosine nitration in PFC, chronic immobilization stress model. In kind it is in vivo, C57BL/6 mice. The settings on record: stress group. The procedure:
Using the prefrontal cortex (PFC) lysate samples from mice obtained after the completion of chronic immobilization stress, GS activity and GS expression level were measured by following the method described above.
Furthermore, the level of tyrosine nitration within GS was measured by using immunoprecipitation (IP)-WB. The immunoprecipitation analysis of tyrosine-nitrated GS was performed using an anti-nitrotyrosine antibody (ab61392, Abcam) and Protein A/G PLUS-Agarose (Santa Cruz) according to the manufacturer's protocol.

Test [5] concerns chronic immobilization stress C57BL/6 mice. The settings on record: stress group, peptide diet vs normal diet. The procedure: A total of 28 male C57BL/6 mice at 7 weeks of age were divided into two groups: a control group (CTL) and a stress group (STR). The stress group was subjected to chronic immobilization stress for 15 days. Specifically, each mouse in the stress group was individually placed in a restrainer for 2 hours daily from […] to induce chronic immobilization stress. The control group (CTL) and stress group (STR) were further classified based on their diets. […] After the completion of the 15-day chronic immobilization stress, the mice were subjected to a sucrose preference test (SPT). Blood samples and prefrontal cortex (PFC) tissues were collected from the mice for subsequent test.
For the analysis of anti-depressive effect, blood and PFC tissues were collected from mice that underwent chronic immobilization stress. The blood collected from mice was centrifuged at 1,000×g for 10 minutes at 4° C. to separate the plasma, and the supernatant was collected and diluted 1/20 with PBS to prepare a sample. The corticosterone concentration in the plasma was then measured using the Corticosterone EIA kit (Cayman) by following the manufacturer's instructions.
In addition, the plasma diluted with PBS at a ⅓ ratio and the PFC tissue lysate (50 μg) were prepared. The ROS/RNS (reactive oxygen species/reactive nitrogen species) level in the plasma and PFC tissues was measured using the ROS/RNS assay kit (Cell Biolabs) according to the manufacturer's instructions.
In addition, the depression was evaluated by measuring the sucrose preference of mice that had undergone 15 days of chronic immobilization stress. The sucrose preference test was conducted over a total of 4 days. Equal amounts of 0.1 M sucrose solution and water were provided in identical bottles of the same size and shape. On the first day, mice were given access to 0.1 M sucrose solution and water for 24 hours. On the second day, the positions of the sucrose solution and water bottles were switched, and mice were given access for 24 hours. On the third day, no sucrose solution or water was provided. On the fourth day, mice were again given access to equal amounts of 0.1 M sucrose solution and water for 3 hours, the positions were then switched, and access was provided for another 3 hours. The amount of sucrose solution and water consumed during the 6-hour period on the fourth day was measured, and the sucrose preference (%) was calculated according to the following formula.
Sucrose preference (%)=Sucrose intake amount/(Water intake amount+Sucrose intake amount)×100

As for `N[C@@H](Cc1ccc(O)cc1)C(=O)O` [L-Tyr, L-tyrosine, reference compound], the seizure level entry in test [1] (5xL-Tyr diet vs normal diet) is recorded as “statistically significantly decreased”.

In the case of tyrosine-tryptophan [YW], the cognitive function entry in test [2] is given as “enhanced cognitive function”. For the same molecule, in test [1] (1xYW diet one week vs normal diet), the seizure level result is “statistically significantly decreased”. For the same molecule, the “activity of the glutamine synthetase in the hippocampal tissue” value in test [3] (1xYW) and in test [3] (3xYW) was “increased” in each case.

As to glutamine-tyrosine [QY], in test [4] (IP-WB, peptide diet vs normal diet), the “tyrosine nitration level of GS” value is on record as “statistically significant decrease”. Besides, the GS activity entry in test [4] (peptide diet (330 mg/kg) vs normal diet) is “statistically significant increase”. Also, in test [5], the “ROS/RNS level in PFC tissue” value is “decreased” and the sucrose preference result is reported as “increased”.
